Records with an inconclusive call do not appear. The source made the active and inactive calls.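 The calls were made as follows: active = compound whose fitted EC50 for lowering fibroblast viability lies at most a set limit above the top dose tested; inconclusive = flat fit with 30 to 70% activity, or poor fit; inactive = the rest.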
Tested on: NIH-3T3 fibroblast viability, Alamar Blue, 48 h, fluconazole
Experiment: NIH-3T3 fibroblast cytotoxicity, dose response, cytotoxicity control, cell-based, fluorescence, Alamar Blue, secondary assay (AID 2327)

SMILES | EC50
O=C1/C(=C\c2cccnc2)SC(=S)N1C1CCS(=O)(=O)C1 (configuration not stated) | > 16 µM (inactive)
NC(=NCCCCCCN=C(N)/N=C(\N)Nc1ccc(Cl)cc1)/N=C(\N)Nc1ccc(Cl)cc1 | > 16 µM (inactive)
CC1CCC(C(C)C)C(OC(=O)Cn2c(-c3ccc(Br)cc3)[n+](C)c3ccccc32)C1 (configuration not stated) | > 16 µM (inactive)
C[C@]12CCC3[C@@H](CC[C@H]4C[C@@H](O)CC[C@]34C)C1CCC2=O (some centres not stated) | > 15 µM (inactive)
C[C@]12CC[C@H](O)C[C@@H]1CC[C@@H]1[C@@H]2CC[C@]2(C)C(=O)CC[C@@H]12 | > 16 µM (inactive)
O=C1/C(=C/c2cccnc2)SC(=S)N1C1CCS(=O)(=O)C1 (configuration not stated) | > 15 µM (inactive)
CC1CCC(C(C)C)C(OC(=O)C[n+]2cc(-c3ccc(Cl)cc3)n3c2CCCCC3)C1 (configuration not stated) | > 16 µM (inactive)

Source: PubChem BioAssay AID2327 (Broad Institute, 2010)
